Literature values in patent US20100120050A1, “Biomarkers For Assessing Altherosclerotic Potential” (ENTELOS, INC., priority 2008, published 2010).

Conditions: clinical trials and post-marketing; cited from earlier work

For `Cc1c(C(=O)NN2CCCCC2)nn(-c2ccc(Cl)cc2Cl)c1-c1ccc(Cl)cc1` [rimonabant], the “effect on plaque endpoints” value is listed as “little observed effect on plaque endpoints”.
